Results taken from patent US20240209028A1, “CNP COMPOUNDS” (priority 2022, published 2024).
Starred links: 1 amine or outer side, 2 acyl side, 3 side chain; linkers in the order of their positions; H or OH if unused. Positions of bridges follow the written chain, without caps; N, C: chain ends. Residues, ends and D or L forms follow the SMILES beside them. *: point of attachment. C18 diacid = O=C(O)CCCCCCCCCCCCCCCCC(=O)*; γGlu = O=C(O)[C@H](CCC(=O)[*:2])N[*:1]; AEEA = NCCOCCOCC(=O)O

Legend:
[1] = CNP local tolerance study in LYD pigs (s.c. injection, histopathology); format: in vivo, domestic LYD pig
Source text: The purpose of this study was to evaluate the local tissue reaction response to subcutaneous injection of CNP compounds in pigs.
Procedure: In domestic pigs, the injection site was subjected to histopathologic examination after subcutaneous dosing. Injections were placed mid-back between the shoulder and hip on both sides of the dorsal midline, and one or two days before injection sites of 2×2 cm were shaved and marked by permanent ink under light anaesthesia. Each injection consisted of 100 or 200 μl formulation with a concentration of approx. 4400 μM. CNP compound formulations were prepared according to the principles in General Methods of Preparation—Method G, and were either A) 8 mM sodium phosphate, 250 mM glycerol, pH 6.5, B) 5 mM sodium acetate, 250 mM glycerol, pH 4.0 or C) 5 mM sodium acetate, 240 mM propylene glycol, pH 4.0 and physiological saline was included as negative control.
On Day 1 the pigs were lightly anaesthetised. An insulin pen (NovoPen 4) and insulin needle (NovoTwist 32G/5 mm) were used for accurate deposition of the CNP formulations in the subcutaneous fat tissue with the needle perpendicular to the skin. On Day 5 (4 days post injection) or 6 (5 days post injection), the pigs were euthanised, and the injection sites were removed and fixed in 4% phosphate buffered neutral formaldehyde in sealed plastic containers. The tissue blocks were prefixed for 2-4 hours in 10% buffered formalin, cut into 2 mm thick slabs with a multi knife, examined for macroscopic changes and finally fixed overnight in cassettes. Two slabs of tissue were selected for light microscopic evaluation where the tissue reaction was maximal or alternatively in the central part of the injection site. Three to four 2-4 μm sections were cut from three levels at 100 μm distance, stained with haematoxylin and eosin (H&E) and evaluated in a light microscope. Histopathological changes were graded on a 5-level scale ((Minimal (Min), Mild (Mil), Moderate (Mod), Marked (Mar) and Severe (Sev)). The studies are summarised in Table 18.
Results: The results are summarised in Table 19. * Necrosis was used as a marker for local subcutaneous reactions; **NAD: No Abnormalities Detected

[2] = High-Molecular-Weight-Protein (HMWP) formation by SEC-UPLC; format: physicochemical; conditions: increase over two weeks at 37° C., pH 6.5
In short: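 Formulations at pH 4.0 or 6.5 incubated quiescently for two weeks at 37 °C; HMWP (peaks eluting before monomer, % of total peptide area) measured by SEC-UPLC, pH 2.4 mobile phase with 50% isopropanol, 50 °C, UV 215 nm. Value is HMWP increase, normalized to two weeks if needed.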

[3] = Thioflavin T (ThT) assay: lagtime and peptide recovery; format: physicochemical; conditions: ThT assay, pH 6.5, 37° C.; assay terminated after 45 hours
In short: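 ThT (final about 1 μM) was added to peptide supernatants at pH 4.0 and 6.5 and incubated at 37 °C with orbital shaking for 45 h. Fluorescence (ex 444/em 485 nm) was read every 20 min, and lag-time was taken as the time to onset of signal rise. Recovery is the RP-UPLC (215 nm) total peak area after vs. before incubation.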

[4] = LYD pig, s.c., approx. 4400 μM, 4 or 5 days after injection

## CC[C@H](C)[C@@H]1NC(=O)[C@H](CCCNC(=N)N)NC(=O)[C@H](CC(=O)O)NC(=O)[C@H](CC(C)C)NC(=O)[C@@H]2CCCN2C(=O)[C@H](CC(C)C)NC(=O)CNC(=O)[C@H](Cc2ccccc2)NC(=O)[C@@H](NC(=O)CNC(=O)[C@H](CCC(N)=O)NC(=O)[C@H](CO)NC(=O)[C@H](CC(C)C)NC(=O)CNC(=O)[C@H](CCCCN)NC(=O)[C@H](CCCCN)NC(=O)[C@H](CCC(N)=O)NC(=O)[C@H](C)NC(=O)CNC(=O)[C@H](CCCCN)NC(=O)[C@H](Cc2ccc(O)cc2)NC(=O)[C@H](CCCCN)NC(=O)[C@H](CCCNC(=N)N)NC(=O)[C@H](C)NC(=O)COCCOCCNC(=O)COCCOCCNC(=O)COCCOCCNC(=O)COCCOCCNC(=O)CC[C@H](NC(=O)CC[C@H](NC(=O)CC[C@H](NC(=O)CC[C@H](NC(=O)CC[C@H](NC(=O)CCCCCCCCCCCCCCCCC(=O)O)C(=O)O)C(=O)O)C(=O)O)C(=O)O)C(=O)O)CSSC[C@@H](C(=O)O)NC(=O)CNC(=O)[C@H](CC(C)C)NC(=O)CNC(=O)[C@H](CO)NC(=O)[C@H](CC(C)C)NC(=O)[C@H](CO)NC(=O)CNC1=O [Compound 9407] ({C18 diacid-γGlu-γGlu-γGlu-γGlu-γGlu-AEEA-AEEA-AEEA-AEEA}-ARKYKGAQKKGLSQGCFGLPLDRIGSLSGLGC-OH; disulfide 16-32)
[1]; [4]
  Number of injections by severity of necrosis: Min.: 1
  Number of injections by severity of necrosis: NAD: 3

## CC[C@H](C)[C@@H]1NC(=O)[C@H](CCCNC(=N)N)NC(=O)[C@H](CC(=O)O)NC(=O)[C@H](CC(C)C)NC(=O)[C@@H]2CCCN2C(=O)[C@H](CC(C)C)NC(=O)CNC(=O)[C@H](Cc2ccccc2)NC(=O)[C@@H](NC(=O)CNC(=O)[C@H](CCC(N)=O)NC(=O)[C@H](CO)NC(=O)CNC(=O)CNC(=O)[C@H](CCCCN)NC(=O)[C@H](CCCCN)NC(=O)[C@H](CCC(N)=O)NC(=O)[C@H](C)NC(=O)CNC(=O)[C@H](CCCCN)NC(=O)[C@H](Cc2ccc(O)cc2)NC(=O)COCCOCCNC(=O)COCCOCCNC(=O)COCCOCCNC(=O)COCCOCCNC(=O)CC[C@H](NC(=O)CC[C@H](NC(=O)CCCCCCCCCCCCCCCCC(=O)O)C(=O)O)C(=O)O)CSSC[C@@H](C(=O)O)NC(=O)CNC(=O)[C@H](CC(C)C)NC(=O)CNC(=O)[C@H](CO)NC(=O)[C@H](CC(C)C)NC(=O)[C@H](CO)NC(=O)CNC1=O [Compound 9435] ({C18 diacid-γGlu-γGlu-AEEA-AEEA-AEEA-AEEA}-YKGAQKKGGSQGCFGLPLDRIGSLSGLGC-OH; disulfide 13-29)
[1]; [4]
  Number of injections by severity of necrosis: Mild: 1
  Number of injections by severity of necrosis: Min.: 3

## CC[C@H](C)[C@@H]1NC(=O)[C@H](CCCNC(=N)N)NC(=O)[C@H](CC(=O)O)NC(=O)[C@H](CC(C)C)NC(=O)[C@@H]2CCCN2C(=O)[C@H](CC(C)C)NC(=O)CNC(=O)[C@H](Cc2ccccc2)NC(=O)[C@@H](NC(=O)CNC(=O)[C@H](CCC(N)=O)NC(=O)[C@H](CO)NC(=O)[C@H](CC(C)C)NC(=O)CNC(=O)[C@H](CCCCN)NC(=O)[C@H](CCCCN)NC(=O)[C@H](CCC(N)=O)NC(=O)[C@H](C)NC(=O)CNC(=O)[C@H](CCCCN)NC(=O)[C@H](Cc2ccc(O)cc2)NC(=O)COCCOCCNC(=O)COCCOCCNC(=O)COCCOCCNC(=O)COCCOCCNC(=O)CC[C@H](NC(=O)CC[C@H](NC(=O)CC[C@H](NC(=O)CCCCCCCCCCCCCCCCC(=O)O)C(=O)O)C(=O)O)C(=O)O)CSSC[C@@H](C(=O)O)NC(=O)CNC(=O)[C@H](CC(C)C)NC(=O)CNC(=O)[C@H](CO)NC(=O)[C@H](CC(C)C)NC(=O)[C@H](CO)NC(=O)CNC1=O [Compound 9480] ({C18 diacid-γGlu-γGlu-γGlu-AEEA-AEEA-AEEA-AEEA}-YKGAQKKGLSQGCFGLPLDRIGSLSGLGC-OH; disulfide 13-29)
[1]; [4]
  Number of injections by severity of necrosis: NAD: 4

## CC[C@H](C)[C@@H]1NC(=O)[C@H](CCCNC(=N)N)NC(=O)[C@H](CC(=O)O)NC(=O)[C@H](CC(C)C)NC(=O)[C@@H]2CCCN2C(=O)[C@H](CC(C)C)NC(=O)CNC(=O)[C@H](Cc2ccccc2)NC(=O)[C@@H](NC(=O)CNC(=O)[C@H](CO)NC(=O)[C@H](CO)NC(=O)[C@H](CC(C)C)NC(=O)CNC(=O)[C@H](CCCCN)NC(=O)[C@H](CCCCN)NC(=O)[C@H](CCC(N)=O)NC(=O)[C@H](C)NC(=O)CNC(=O)[C@H](CCCCN)NC(=O)[C@H](Cc2ccc(O)cc2)NC(=O)[C@H](CCCCN)NC(=O)[C@H](CCCNC(=N)N)NC(=O)[C@H](C)NC(=O)[C@H](CCC(N)=O)NC(=O)[C@@H]2CCCN2C(=O)[C@H](Cc2c[nH]cn2)NC(=O)[C@H](CCC(=O)O)NC(=O)[C@H](CCC(N)=O)NC(=O)CC[C@H](NC(=O)CC[C@H](NC(=O)CC[C@H](NC(=O)CC[C@H](NC(=O)CC[C@H](NC(=O)CCCCCCCCCCCCCCCCC(=O)O)C(=O)O)C(=O)O)C(=O)O)C(=O)O)C(=O)O)CSSC[C@@H](C(=O)O)NC(=O)CNC(=O)[C@H](CC(C)C)NC(=O)CNC(=O)[C@H](CO)NC(=O)[C@H](CC(C)C)NC(=O)[C@H](CO)NC(=O)CNC1=O [Compound 9482] ({C18 diacid-γGlu-γGlu-γGlu-γGlu-γGlu}-QEHPQARKYKGAQKKGLSSGCFGLPLDRIGSLSGLGC-OH; disulfide 21-37)
[1]; [4]
  Number of injections by severity of necrosis: NAD: 4

## CC[C@H](C)[C@@H]1NC(=O)[C@H](CCCNC(=N)N)NC(=O)[C@H](CCC(=O)O)NC(=O)[C@H](CC(C)C)NC(=O)[C@H](CCCCN)NC(=O)[C@H](CC(C)C)NC(=O)CNC(=O)[C@H](Cc2ccccc2)NC(=O)[C@@H](NC(=O)CNC(=O)[C@H](CCCCN)NC(=O)[C@H](CO)NC(=O)[C@H](CC(C)C)NC(=O)CNC(=O)[C@H](CCCCN)NC(=O)[C@H](CCCCN)NC(=O)[C@H](CCC(N)=O)NC(=O)[C@H](C)NC(=O)CNC(=O)[C@H](CCCCN)NC(=O)[C@H](Cc2ccc(O)cc2)NC(=O)[C@H](CCCCN)NC(=O)[C@H](CCCNC(=N)N)NC(=O)[C@H](C)NC(=O)COCCOCCNC(=O)COCCOCCNC(=O)CC[C@H](NC(=O)CCCCCCCCCCCCCCCCC(=O)O)C(=O)O)CSSC[C@@H](C(=O)O)NC(=O)CNC(=O)[C@H](CC(C)C)NC(=O)CNC(=O)[C@H](CO)NC(=O)[C@H](CC(C)C)NC(=O)[C@H](CO)NC(=O)CNC1=O [compound 0776] ({C18 diacid-γGlu-AEEA-AEEA}-ARKYKGAQKKGLSKGCFGLKLERIGSLSGLGC-OH; disulfide 16-32)
[1]; pig, in vivo, sc
  local subcutaneous necrosis: moderate to marked

## CC[C@H](C)[C@@H]1NC(=O)[C@H](CCCNC(=N)N)NC(=O)[C@H](CC(=O)O)NC(=O)[C@H](CC(C)C)NC(=O)[C@H](CCCCN)NC(=O)[C@H](CC(C)C)NC(=O)CNC(=O)[C@H](Cc2ccccc2)NC(=O)[C@@H](NC(=O)CNC(=O)[C@H](CCCCN)NC(=O)[C@H](CO)NC(=O)[C@H](CC(C)C)NC(=O)CNC(=O)[C@H](CCCCN)NC(=O)[C@H](CCCCN)NC(=O)[C@H](CCC(N)=O)NC(=O)[C@H](C)NC(=O)CNC(=O)[C@H](Cc2c[nH]cn2)NC(=O)[C@H](CCC(=O)O)NC(=O)COCCOCCNC(=O)COCCOCCNC(=O)CC[C@H](NC(=O)CCCCCCCCCCCCCCCCC(=O)O)C(=O)O)CSSC[C@@H](C(=O)O)NC(=O)CNC(=O)[C@H](CC(C)C)NC(=O)CNC(=O)[C@H](CO)NC(=O)[C@H](CC(C)C)NC(=O)[C@H](CO)NC(=O)CNC1=O [compound 1235]
[1]; pig, in vivo, sc
  local subcutaneous necrosis: minimal to mild

## CC[C@H](C)[C@@H]1NC(=O)[C@H](CCCNC(=N)N)NC(=O)[C@H](CC(=O)O)NC(=O)[C@H](CC(C)C)NC(=O)[C@@H]2CCCN2C(=O)[C@H](CC(C)C)NC(=O)CNC(=O)[C@H](Cc2ccccc2)NC(=O)[C@@H](NC(=O)CNC(=O)[C@H](CCC(N)=O)NC(=O)[C@H](CO)NC(=O)[C@H](CO)NC(=O)CNC(=O)[C@H](CCCCN)NC(=O)[C@H](CCCCN)NC(=O)[C@H](CCC(N)=O)NC(=O)[C@H](C)NC(=O)CNC(=O)[C@@H]2CCCN2C(=O)[C@H](C)NC(=O)[C@H](CCC(N)=O)NC(=O)CNC(=O)COCCOCCNC(=O)COCCOCCNC(=O)CC[C@H](NC(=O)CCCCCCCCCCCCCCCCC(=O)O)C(=O)O)CSSC[C@@H](C(=O)O)NC(=O)CNC(=O)[C@H](CC(C)C)NC(=O)CNC(=O)[C@H](CO)NC(=O)[C@H](CC(C)C)NC(=O)[C@H](CO)NC(=O)CNC1=O [compound 9384] ({C18 diacid-γGlu-AEEA-AEEA}-GQAPGAQKKGSSQGCFGLPLDRIGSLSGLGC-OH; disulfide 15-31; C-terminus assumed)
[2]
  2-Week HMWP formation at pH 6.5 (%), % relative to total peak area: 1.5%
[1]; 5 days after subcutaneous injections in the pig
  local subcutaneous necrosis: no to minimal
[1]; based on pig local tolerance
  assessment for human subcutaneous administration: acceptable
[3]
  LagTime (h) at pH 6.5: 45 h
